Target: T1, Myeloperoxidase (MPO) (Homo sapiens, UniProt P05164)
T1 sequence (P05164 49-745): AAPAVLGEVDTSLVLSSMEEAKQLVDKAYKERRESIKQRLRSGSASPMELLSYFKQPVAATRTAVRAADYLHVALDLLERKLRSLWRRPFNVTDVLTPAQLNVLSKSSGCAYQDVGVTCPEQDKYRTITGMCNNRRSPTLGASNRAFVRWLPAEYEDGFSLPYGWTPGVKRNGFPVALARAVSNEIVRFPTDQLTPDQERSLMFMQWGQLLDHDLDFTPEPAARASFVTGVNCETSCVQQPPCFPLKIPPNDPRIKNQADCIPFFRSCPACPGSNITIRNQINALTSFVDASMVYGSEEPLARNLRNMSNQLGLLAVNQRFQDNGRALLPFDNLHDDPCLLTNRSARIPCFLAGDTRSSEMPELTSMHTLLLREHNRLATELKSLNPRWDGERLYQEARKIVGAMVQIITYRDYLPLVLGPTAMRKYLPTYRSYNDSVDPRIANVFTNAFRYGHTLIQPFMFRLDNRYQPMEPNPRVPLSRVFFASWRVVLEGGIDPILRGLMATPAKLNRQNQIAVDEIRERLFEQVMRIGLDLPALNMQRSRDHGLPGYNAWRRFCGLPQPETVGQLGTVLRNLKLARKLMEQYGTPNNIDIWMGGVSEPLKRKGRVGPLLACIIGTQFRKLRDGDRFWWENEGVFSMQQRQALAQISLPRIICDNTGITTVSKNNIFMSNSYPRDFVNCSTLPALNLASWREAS
Test: Myeloperoxidase reaction: MPO-catalysed formation of HOCl, measured as ethylene release from ACC by gas chromatography
Assay type: biochemical
Details: CAR, in mixtures SMK 3 mg im Ansatz, 30 min, 37 °C, pH 5,7, read-out: % Hemmung; for inhibition at 100 µM: 0,1 mM AN; for inhibition at 1000 µM: 1,0 mM AN
Source text: Die Inhibitionswirkung wurde in einem In-vitro-Teststystem geprüft, das die oxidativen Prozesse während eine Entzündung simulieren soll.
Myeloperoxidase (MPO) wird von aktivierten Leukozyten während der Degranulation in das Phagosom und das umliegende Gewebe abgegeben. Das Enzym katalysiert die Bildung von HOCl aus H2O2 und Chlorid. Durch Messung der HOCl-Konzentration in dem Reaktionssystem kann das Ausmaß der Inhibition bestimmt werden. Hypochlorit (HOCl) spaltet spezifisch Aminocyclopropancarbonsäure (ACC), wobei Ethylen entsteht.
Dieses wiederum kann gaschromatographisch identifiziert werden.
Der Einfluß einer Mischung aus Süßmolkekonzentrat (SMK) und Anserin bzw. Carnosin sowie der einzelnen Komponenten in den in Tabelle 1 angegebenen Konzentrationen auf die MPO-katalysierte Bildung von HOCl wurde untersucht. Tabelle 1
Es wurde folgender Ansatz verwendet: 0,15 M NaCl, 25 µM H2O2, 0,1 E MPO, 0,1 M Phosphatpuffer mit einem pH-Wert von 5,7 und 1 mM ACC. Die Inkubationsdauer beträgt 30 Minuten bei 37 °C. Die Ethylen-Freisetzungsrate eines Ansatzes ohne Zugabe potentieller Inhibitorstoffe entspricht einer Grundrate von 100% (0% Hemmung).

inhibition at 100 µM [%] | inhibition at 1000 µM [%] | Structure (SMILES)
23 | 84 | Cn1cncc1C[C@H](NC(=O)CCN)C(=O)O [AN, Anserin]
23 | 86 | NCCC(=O)N[C@@H](Cc1cnc[nH]1)C(=O)O [CAR, Carnosin]
